Assay: Polymorphic stability of solid linezolid Form IV, alone and in contact with solvents
Assay type: physicochemical
Source text: As a consequence, pharmaceutical compositions comprising linezolid Form IV substantially free of linezolid Form II are difficult to prepare.

conversion of Form IV to Form II (in words) (contacted with solvents, in particular ethanol): readily transforms to linezolid Form II
conversion of solid Form IV to Form II (in words) (solid, at least 3 months at temperatures between 25 and 40° C.): does not convert to linezolid Form II
SMILES: CC(=O)NC[C@H]1CN(c2ccc(N3CCOCC3)c(F)c2)C(=O)O1 [linezolid Form IV, N-[[(5S)-3-[3-fluoro-4-(4-morpholinyl)phenyl]-2-oxo-5-oxazolidinyl]methyl]acetamide]
